Measurements from US20250345351A1, “OLIGOSACCHARIDE COMPOSITIONS AND METHODS OF USE” (DSM NUTRITIONAL PRODUCTS, LLC, priority 2020, published 2025).

Columns and labels:
[1] = tested on: fecal microbiome of healthy subjects; assay: Ex vivo fermentation in the presence of mesalamine: 16S rRNA amplicon sequencing, Bray-Curtis dissimilarity (Example 23); assay type: cell-based, human; details: all 5-ASA concentrations tested; replicate sequencing dissimilarity 0.06 (S.D. 0.03)
Procedure: (§1) 5-aminosalicilic acids (5-ASA), such as mesalamine, are standard-of-care compounds for the treatment of patients with mild-to-moderate ulcerative colitis. The ability of the selected oligosaccharide composition to support the growth of microbial taxa in the presence of mesaline was determined. Fecal samples from ten healthy subjects were incubated anaerobically in supplemented Clostridium minimal medium without (negative control) or with the selected oligosaccharide composition. Samples with the selected oligosaccharide composition were also incubated with 0.0, 0.5, 2, 8, 32, 125, or 500 μM mesalamine. Each fecal sample incubation was performed with three biological replicates. After incubation, samples were sedimented by centrifugation and culture supernatants were collected for SCFA quantification by GC-FID.
To understand if mesalamine influenced understand the shifts in taxonomic composition produced by incubation with the selected oligosaccharide composition, the fecal samples were characterized by 16S rRNA amplicon seuquencing. Genomic DNA was extracted from fecal samples using DNeasy PowerSoil extraction plates (Qiagen) and quantified using the Quant-iT PicoGreen dsDNA assay (Invitrogen). 16S rRNA libraries were prepared by PCR amplification with the 515F/806R primer set before sequencing on the Illumina NextSeq platform to at least 25 thousand reads. […]

[2] = tested on: fecal samples from ten healthy subjects; assay: Ex vivo fermentation of the selected oligosaccharide composition in the presence of mesalamine: SCFA by GC-FID (Example 23); assay type: cell-based, human; details: 0.5, 2, 8, 32, 125, or 500 μM mesalamine with the composition
Procedure: as §1, with “mesaline was” left out

## Nc1ccc(O)c(C(=O)O)c1 [mesalamine]
[1]
  mean Bray-Curtis dissimilarity to samples incubated with the composition and without mesalamine: 0.06 (S.D. 0.02)
[2]
  effect on SCFA production by the selected oligosaccharide composition: none of the samples incubated with mesalamine showed any significant differences in SCFA production
